Assay results taken from PubChem BioAssay (NCI).
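A five-concentration, 48-hour dose response in 96-well plates underlies each endpoint, interpolated linearly between surrounding concentrations. The concentration for 50% growth inhibition is given as GI50. TGI: total growth inhibition.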

Columns and labels:
Test in all cases: NCI tumour cell line growth inhibition, 48 h
A498 renal = tested on: A498 renal
A549 NSCLC = tested on: A549 NSCLC
HL-60(TB) leukemia = tested on: HL-60(TB) leukemia
MDA-MB-435 = tested on: MDA-MB-435
NCI-H460 lung = tested on: NCI-H460 lung
OVCAR-3 ovarian = tested on: OVCAR-3 ovarian
OVCAR-5 ovarian = tested on: OVCAR-5 ovarian
SK-OV-3 ovarian = tested on: SK-OV-3 ovarian
T-47D breast = tested on: T-47D breast
UACC-62 melanoma = tested on: UACC-62 melanoma

| Compound | TGI (A498 renal) | TGI (A549 NSCLC) | TGI (HL-60(TB) leukemia) | TGI (MDA-MB-435) | TGI (NCI-H460 lung) | TGI (OVCAR-3 ovarian) | TGI (OVCAR-5 ovarian) | TGI (SK-OV-3 ovarian) | TGI (T-47D breast) | TGI (UACC-62 melanoma) | GI50 (A498 renal) | GI50 (A549 NSCLC) | GI50 (HL-60(TB) leukemia) | GI50 (MDA-MB-435) | GI50 (NCI-H460 lung) | GI50 (OVCAR-3 ovarian) | GI50 (OVCAR-5 ovarian) | GI50 (SK-OV-3 ovarian) | GI50 (T-47D breast) | GI50 (UACC-62 melanoma) |
| --- | --- | --- | --- | --- | --- | --- | --- | --- | --- | --- | --- | --- | --- | --- | --- | --- | --- | --- | --- | --- |
| O=C1C(=O)c2ccccc2C=C1[N+](=O)[O-] | > 100 µM | > 100 µM | 54.2 µM | 31.8 µM | > 100 µM | 85.2 µM | > 100 µM | > 100 µM | > 100 µM | 80.1 µM | – | – | – | – | – | – | – | – | – | – |
| COc1ccc(Nc2nc(NCc3ccccc3)c3ccccc3n2)cc1 | 13.9 µM | 16.5 µM | 4.2 µM | 3.85 µM | 12.6 µM | 5.73 µM | 28 µM | 22.1 µM | 3.4 µM | 23.3 µM | 2.44 µM | 3.78 µM | 2.04 µM | 1.92 µM | 3.34 µM | 2.35 µM | 10.1 µM | 10.4 µM | 1.74 µM | 10.1 µM |
| CCOc1ccc(/C=N/Nc2cc(C)nc3ccc(Cl)cc23)cc1 | 3.45 µM | 3.72 µM | 3.73 µM | 3.26 µM | 4.27 µM | 3.5 µM | 3.5 µM | 7.29 µM | 3.8 µM | 3.32 µM | 1.7 µM | 2 µM | 1.86 µM | 1.75 µM | 2.06 µM | 1.93 µM | 1.97 µM | 2.86 µM | 1.94 µM | 1.79 µM |
| S=c1cn[nH]c2ccc(Br)cc12 | > 100 µM | > 100 µM | > 100 µM | > 100 µM | > 100 µM | > 100 µM | > 100 µM | > 100 µM | > 100 µM | > 100 µM | – | – | – | – | – | – | – | – | – | – |
| O=C(/C=C/c1ccccc1Cl)c1ccc(O)cc1 | 21.6 µM | 25.1 µM | > 23.2 µM | 17.6 µM | 16.8 µM | 9.22 µM | 37.4 µM | 25.9 µM | 25.9 µM | 21.8 µM | 8.46 µM | 7.33 µM | 3.22 µM | 4.23 µM | 4.4 µM | 3.46 µM | 19.8 µM | 12.1 µM | 6.38 µM | 7.88 µM |
| COc1ccccc1/C=C1\CCC(CN(C)C)C1=O (stereo not given) | 34.1 µM | 40.6 µM | 6.68 µM | 25.2 µM | 44.5 µM | 18.6 µM | 24.2 µM | 33.7 µM | 28.8 µM | 13.9 µM | – | – | – | – | – | – | – | – | – | – |
| CN(C)c1cc2c(cc1Sc1nc3c(N)nccc3n1CCNCC(C)(C)C)OCO2 | 10.1 µM | 18.7 µM | 0.85 µM | 15.4 µM | 12.1 µM | 15.8 µM | 28.1 µM | 15.2 µM | 31.1 µM | 5.41 µM | 1.46 µM | 0.438 µM | 0.274 µM | 0.426 µM | 0.376 µM | 0.614 µM | 1.12 µM | 0.394 µM | 0.533 µM | 0.432 µM |
| N#Cc1cc(-c2ccccc2)[nH]c1-c1nccc2ccccc12 | > 100 µM | > 100 µM | 82.6 µM | 78.1 µM | > 100 µM | > 100 µM | > 100 µM | > 100 µM | 45.2 µM | > 100 µM | 26.3 µM | 13.9 µM | 8.52 µM | 10.5 µM | 18.1 µM | 21.9 µM | 31.7 µM | 17.8 µM | 3.06 µM | 7.36 µM |
| O=C(O[C@H]1CN[C@H](C#Cc2cc3ncnc(Nc4ccc(Cc5ccccc5)cc4)c3s2)C1)N1CCOCC1 | 6.53 µM | > 25 µM | 17.1 µM | > 22.5 µM | > 25 µM | 11 µM | > 25 µM | > 25 µM | > 25 µM | > 23.5 µM | 0.768 µM | 4.86 µM | 5.5 µM | 6.33 µM | 7.52 µM | 3.85 µM | 9 µM | 0.033 µM | 1.86 µM | 6.25 µM |
| O=C(c1ccc(F)c(F)c1Nc1ccc(I)cc1F)N1CC(O)([C@H]2CCCCN2)C1 | 3.31 µM | 18 µM | 5.71 µM | 15.8 µM | 20.2 µM | 25.2 µM | 15.5 µM | 21.1 µM | 26 µM | 2.92 µM | 1.11 µM | 2.37 µM | 0.173 µM | 0.161 µM | 4.19 µM | 12.1 µM | 0.914 µM | 8.15 µM | 11.6 µM | 0.097 µM |
| NC(=O)c1cccc(N)c1 | > 100 µM | > 100 µM | > 100 µM | > 100 µM | > 100 µM | > 100 µM | > 100 µM | > 100 µM | > 100 µM | > 100 µM | > 100 µM | > 100 µM | > 100 µM | > 100 µM | > 100 µM | > 100 µM | > 100 µM | > 100 µM | > 100 µM | > 100 µM |
| NC(Cc1cc(Br)c(O)c(Br)c1)C(=O)O (stereo not given) | > 100 µM | > 100 µM | > 100 µM | > 100 µM | > 100 µM | > 100 µM | > 100 µM | > 100 µM | > 100 µM | > 100 µM | – | – | – | – | – | – | – | – | – | – |
| O=Cc1ncc(-c2ccc(C(F)(F)F)cc2)c(NC2CCCCCC2)n1 | > 10 µM | > 10 µM | > 10 µM | > 10 µM | > 10 µM | > 10 µM | > 10 µM | > 10 µM | > 10 µM | > 10 µM | > 10 µM | > 10 µM | > 10 µM | > 10 µM | > 10 µM | > 10 µM | > 10 µM | > 10 µM | > 10 µM | > 10 µM |
